Holding throughout (format): cell-based
Test [1] concerns IL6. The experiment in a line: IL-1β stimulated IL6 inhibition assay in PBMC. The following applies: PBMC, human PBMCs, IL-1β stimulation, compound overnight, IL6 by MSD after 24 hrs; for IC50: Homo sapiens, 24 h, read-out: IL1β stim IL6 inhibition IC50; for Emax: read-out: IL1β stim IL6 inhibition Ymax. The essentials:
(§1)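 Seed human PBMC, 2.0×10^6 cells/mL → compound overnight → stimulant (IL-1β, LPS or R848) at per-donor EC50 → 24 hrs → media to MSD for IL6/IL8.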

Test [2] deals with IL8. In words: IL-1β stimulated IL8 inhibition assay in PBMC. The following applies: human PBMCs, IL-1β stimulation, compound overnight, IL8 by MSD after 24 hrs; for IC50: read-out: IL1β stim IL8 inhibition IC50; for Emax: read-out: IL1β stim IL8 inhibition Ymax. The essentials:
as §1

For test [3], the target named is T1, IRAK-4 (Homo sapiens, UniProt Q9NWZ3).
T1 sequence (Q9NWZ3 1-460): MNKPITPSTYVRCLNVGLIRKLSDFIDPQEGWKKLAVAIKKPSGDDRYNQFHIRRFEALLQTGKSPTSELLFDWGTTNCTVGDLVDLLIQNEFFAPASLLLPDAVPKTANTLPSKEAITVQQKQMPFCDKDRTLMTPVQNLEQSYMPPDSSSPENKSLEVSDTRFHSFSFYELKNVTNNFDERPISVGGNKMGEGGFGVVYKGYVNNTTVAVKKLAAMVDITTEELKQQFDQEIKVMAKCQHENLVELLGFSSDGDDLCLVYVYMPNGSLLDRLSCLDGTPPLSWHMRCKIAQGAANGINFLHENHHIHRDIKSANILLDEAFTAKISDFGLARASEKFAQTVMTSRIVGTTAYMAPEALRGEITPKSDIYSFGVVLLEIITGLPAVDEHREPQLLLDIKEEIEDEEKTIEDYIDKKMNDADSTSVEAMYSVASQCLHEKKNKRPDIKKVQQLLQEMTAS
The experiment in a line: IRAK-4 ELISA, OCI-Ly10 degradation. The arrangement: endogenous in cells. The settings on record: treated overnight; for Dmax: OCI-Ly10, OCI-Ly10 cells; for DC50: OCI-Ly10 cells. In short, it runs like this: (§2)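 IRAK-4 levels measured by matched-antibody-pair ELISA on lysates after overnight compound exposure. Cells seeded same day: PBMC at 2×10^6/ml, OCI-Ly10 at 1×10^6/ml.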
(In an ELISA, binding on a coated surface is turned into a signal by an enzyme label.)

Test [4] concerns the target T1, IRAK-4. In words: IRAK-4 ELISA, PBMC degradation. The arrangement: endogenous in cells; host or cells: PBMC. The following applies: treated overnight. The essentials:
as §2

Where only a bound is given, the exact number is not on record here.

As a reminder, the IC50 is the point on the concentration scale where inhibition reaches its midpoint. For orientation: Dmax means the largest share of the target that was removed. A word on the DC50: it is the concentration at which degradation of the target reaches its halfway point. Read a low DC50 as degradation at low concentration. Take `O=C1CCC(N2Cc3cc(CCN4CCC(N5Cc6cc(NC(=O)c7cnn8cccnc78)c(N7CCOCC7)cc6C5=O)CC4)ccc3C2=O)C(=O)N1` (stereo not shown) [Example 36]: in test [1], the IC50 lay in the range of 10 to 50 nM and the Emax was in the range of 70 to 80%. The IC50 in test [2] is not below 100 nM. In test [3], the Dmax is less than 70% and the DC50 is less than 10 nM. In test [4], the 50% degradation concentration (DC50) lay in the range of 1 to 5 nM; the Dmax was less than 70%; the “PBMC DC90” value is “B (B represents a DC90 value ≥10.0 nM and <25.0 nM)”.
For `O=C1CCC(N2Cc3cc(N4CCC(F)(CN5CCC(n6cc7cc(NC(=O)c8cnn9cccnc89)c(OCC8CC8)cc7n6)CC5)CC4)ccc3C2=O)C(=O)N1` (stereo not shown) [Example 278], in test [1], the 50% inhibitory concentration (IC50) was 10 to 50 nM and the Emax is not below 90%. Further, in test [2], the concentration for half-maximal inhibition (IC50) fell in the range of 10 to 50 nM and the Emax was not below 90%. Further, in test [3], the Dmax lay within 80 to 90% and the DC50 was less than 10 nM. For the same compound, in test [4], the DC50 was less than 1 nM, the Dmax lay in the range of 80 to 90% and the “PBMC DC90” value is on record as “A (A represents a DC90 value <10.0 nM)”.
`O=C1CCC(N2Cc3cc(N4CC(CN5CCC(n6cc7cc(NC(=O)c8cnn9cccnc89)c(C8CC8)cc7n6)CC5)C4)ccc3C2=O)C(=O)N1` (stereo not shown) [Example 136]: in test [1], the IC50 was less than 10 nM and the Emax is not below 90%. Moreover, in test [2], the IC50 lay in the range of 50 to 100 nM and the Emax fell in the range of 70 to 80%. In test [3], this compound registered a Dmax of 70 to 80% and a DC50 of less than 10 nM. Moreover, in test [4], the DC50 is less than 1 nM, the greatest degradation seen (Dmax) was not below 90% and the “PBMC DC90” value was “A (A represents a DC90 value <10.0 nM)”.
In the case of `COc1cc(N2CCC(CN3CCC(N4Cc5cc(NC(=O)c6cnn7cccnc67)c(OC(C)C)cc5C4=O)CC3)CC2)cc2c1C(=O)N(C1CCC(=O)NC1=O)C2=O` (stereo not shown) [Example 12], in test [1], the IC50 was in the range of 10 to 50 nM and the Emax fell in the range of 80 to 90%. In test [2], the IC50 is 10 to 50 nM and the Emax was less than 70%. In addition, in test [3], the Dmax was not below 90% and the DC50 was less than 10 nM. Besides, in test [4], the half-maximal degradation concentration (DC50) is less than 1 nM, the Dmax was not below 90% and the “PBMC DC90” value was “A (A represents a DC90 value <10.0 nM)”.
In the case of `O=C1CCC(NC(=O)c2ccc(N3CCC(CN4CCC(n5cc6cc(NC(=O)c7cnn8cccnc78)c(OCC7CC7)cc6n5)CC4)CC3)cc2F)C(=O)N1` (stereo not shown) [Example 288], in test [1], the IC50 lay within 10 to 50 nM and the Emax was not below 90%. In test [2], the IC50 was in the range of 50 to 100 nM and the Emax lay in the range of 70 to 80%. In test [3], this compound registered a Dmax not below 90% and a DC50 of less than 10 nM. Further, in test [4], the DC50 was less than 1 nM, the maximal degradation (Dmax) is not below 90% and the “PBMC DC90” value is on record as “A (A represents a DC90 value <10.0 nM)”.
Turning to `COc1cc2nn([C@H]3CC[C@H](N(C)C4CN(c5ccc6c(c5)C(=O)N(C5CCC(=O)NC5=O)C6=O)C4)CC3)cc2cc1NC(=O)c1cnn2cccnc12` (stereo partly shown) [Example 334], in test [1], the IC50 is less than 10 nM and the Emax was not below 90%. Moreover, in test [2], the IC50 lay in the range of 10 to 50 nM and the Emax was less than 70%. In addition, in test [3], the maximal degradation (Dmax) was not below 90% and the DC50 was less than 10 nM. For the same compound, in test [4], the DC50 was less than 1 nM, the Dmax was not below 90% and the “PBMC DC90” value is “A (A represents a DC90 value <10.0 nM)”.
In the case of `O=C1CCC(N2Cc3cc(OCCOCCN4CCC(n5cc6cc(NC(=O)c7cnn8cccnc78)c(OCC7CC7)cc6n5)CC4)ccc3C2=O)C(=O)N1` (stereo not shown) [Example 119], in test [1], the IC50 is less than 10 nM and the Emax was not below 90%. Moreover, in test [2], the IC50 fell in the range of 10 to 50 nM and the Emax lay in the range of 80 to 90%. In test [3], this compound registered a Dmax of 80 to 90% and a DC50 of less than 10 nM. In test [4], the DC50 is less than 1 nM, the Dmax was not below 90% and the “PBMC DC90” value was “A (A represents a DC90 value <10.0 nM)”.
As to `O=C1CCC(N2C(=O)c3ccc(N4CCC(CN5CCC(N6Cc7cc(NC(=O)c8cnn9cccnc89)c(N8CCC(N9CCC9)CC8)cc7C6=O)CC5)CC4)cc3C2=O)C(=O)N1` (stereo not shown) [Example 38], in test [1], the IC50 is less than 10 nM and the Emax is not below 90%. For the same compound, in test [2], the IC50 was not below 100 nM and the Emax was not below 90%. Further, in test [3], the Dmax was not below 90% and the DC50 was less than 10 nM. In addition, in test [4], the DC50 lay in the range of 1 to 5 nM, the greatest degradation seen (Dmax) is not below 90% and the “PBMC DC90” value is listed as “A (A represents a DC90 value <10.0 nM)”.
Take `O=C1CCC(N2Cc3cc(OCCN4CCC(n5cc6cc(NC(=O)c7cnn8cccnc78)c(OCC7CC7)cc6n5)CC4)ccc3C2=O)C(=O)N1` (stereo not shown) [Example 122]: in test [1], the IC50 is 10 to 50 nM and the Emax is not below 90%. In addition, in test [2], the IC50 lay in the range of 50 to 100 nM and the Emax lay in the range of 80 to 90%. Besides, in test [3], the Dmax was less than 70% and the DC50 is less than 10 nM. In test [4], the DC50 fell in the range of 1 to 5 nM; the Dmax was less than 70%; the “PBMC DC90” value is “B (B represents a DC90 value ≥10.0 nM and <25.0 nM)”.
With `O=C1CCC(N2Cc3cc(N4CC(F)(CN5CCC(n6cc7cc(NC(=O)c8cnn9cccnc89)c(OCC8CC8)cc7n6)CC5)C4)ccc3C2=O)C(=O)N1` (stereo not shown) [Example 279], in test [1], the IC50 lay in the range of 10 to 50 nM and the Emax is not below 90%. Moreover, in test [2], the 50% inhibitory concentration (IC50) is not below 100 nM and the Emax was 80 to 90%. In test [3], this compound registered a maximal degradation (Dmax) of 70 to 80% and a half-maximal degradation concentration (DC50) of less than 10 nM. In test [4], the DC50 is less than 1 nM, the greatest degradation seen (Dmax) is not below 90% and the “PBMC DC90” value is recorded as “A (A represents a DC90 value <10.0 nM)”.
Consider `O=C1CCC(N2C(=O)c3ccc(N4CCC(CN5CC[C@H](n6cc7cc(NC(=O)c8cnn9cccnc89)c(OCC8CC8)cc7n6)[C@@H](F)C5)CC4)cc3C2=O)C(=O)N1` (stereo partly shown) [Example 184], for which, in test [1], the IC50 lay within 10 to 50 nM and the Emax lay in the range of 80 to 90%. In test [2], the half-maximal inhibitory concentration (IC50) lay within 10 to 50 nM and the Emax is less than 70%. Moreover, in test [3], the Dmax is less than 70% and the DC50 was less than 10 nM. Also, in test [4], the DC50 is 1 to 5 nM; the maximal degradation (Dmax) lay within 80 to 90%; the “PBMC DC90” value is “C (C represents a DC90 value ≥25.0 nM and <50 nM)”.
`COc1cc2nn([C@H]3CC[C@H](N(C)CC#Cc4ccc5c(c4)C(=O)N(C4CCC(=O)NC4=O)C5=O)CC3)cc2cc1NC(=O)c1cnn2cccnc12` (stereo partly shown) [Example 338]: in test [1], the IC50 was less than 10 nM and the Emax was not below 90%. In addition, in test [2], the IC50 is 10 to 50 nM and the Emax is less than 70%. In test [3], the Dmax was not below 90% and the DC50 is less than 10 nM. Besides, in test [4], the DC50 is less than 1 nM, the Dmax is not below 90% and the “PBMC DC90” value is given as “A (A represents a DC90 value <10.0 nM)”.
Regarding `COc1cc2nn([C@H]3CC[C@H](N(C)C4CCN(c5ccc6c(c5)C(=O)N(C5CCC(=O)NC5=O)C6=O)CC4)CC3)cc2cc1NC(=O)c1cnn2cccnc12` (stereo partly shown) [Example 335], in test [1], the IC50 was less than 10 nM and the Emax is not below 90%. Also, the 50% inhibitory concentration (IC50) in test [2] was not below 100 nM. In test [3], this compound had a Dmax not below 90% and a DC50 of less than 10 nM. For the same compound, in test [4], the DC50 was less than 1 nM, the Dmax was not below 90% and the “PBMC DC90” value is given as “A (A represents a DC90 value <10.0 nM)”.
Consider `COc1cc2nn(C3CCN(CC4CN(c5cccc6c5n(C)c(=O)n6C5CCC(=O)NC5=O)C4)CC3)cc2cc1NC(=O)c1cnn2cccnc12` (stereo not shown) [Example 379], for which, in test [1], the half-maximal inhibitory concentration (IC50) was less than 10 nM and the Emax fell in the range of 80 to 90%. Moreover, in test [2], the half-inhibitory concentration (IC50) lay in the range of 10 to 50 nM and the Emax is 70 to 80%. Moreover, in test [3], the Dmax is not below 90% and the DC50 is less than 10 nM. In addition, in test [4], the DC50 is less than 1 nM, the Dmax was not below 90% and the “PBMC DC90” value was “A (A represents a DC90 value <10.0 nM)”.
Regarding `Cc1cnc2c(C(=O)Nc3cc4c(cc3OC(C)C)C(=O)N(C3CCN(CCc5ccc6c(c5)CN(C5CCC(=O)NC5=O)C6=O)CC3)C4)cnn2c1` (stereo not shown) [Example 9], in test [1], the IC50 was less than 10 nM and the Emax is not below 90%. Also, in test [2], the IC50 was 10 to 50 nM and the Emax lay within 70 to 80%. In test [3], this compound gave a Dmax not below 90% and a DC50 of less than 10 nM. In test [4], the DC50 lay within 1 to 5 nM, the Dmax lay within 80 to 90% and the “PBMC DC90” value is reported as “A (A represents a DC90 value <10.0 nM)”.

The values are drawn from US20230099344A1, “COMPOUNDS AND METHODS FOR THE TARGETED DEGRADATION OF IRAK-4” (Arvinas Operations, Inc., priority 2021, published 2023).
